Data published in patent publication US10597388B2, “Pyridazinone herbicides” (FMC CORPORATION, priority 2014, dated 2020).

Legend:
Experiment in all cases: Test C greenhouse herbicide test, pre- and postemergence
Format in all cases: in vivo
[1] = system: wheat (winter wheat, Triticum aestivum)
Outline: (§1)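 Two application timings: at sowing into a soil/sand blend, and on 2–18 cm seedlings in peat-vermiculite potting mix. A non-phytotoxic, surfactant-containing solvent carried the compounds. Plants were compared with controls and rated visually on 0–100 after 13–15 d.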

[2] = system: lambsquarters (Chenopodium album)
Outline: as §1

[3] = system: corn (Zea mays)
Outline: as §1

[4] = system: waterhemp (common waterhemp, Amaranthus rudis)
Outline: as §1

[5] = system: blackgrass (Alopecurus myosuroides)
Outline: as §1

[6] = system: crabgrass, large (large crabgrass, Digitaria sanguinalis)
Outline: as §1

[7] = system: galium (catchweed bedstraw, Galium aparine)
Outline: as §1

[8] = system: pigweed (Amaranthus retroflexus)
Outline: as §1

[9] = system: velvetleaf (Abutilon theophrasti)
Outline: as §1

[10] = system: oilseed rape (Brassica napus)
Outline: as §1

[11] = system: foxtail, giant (giant foxtail, Setaria faberii)
Outline: as §1

[12] = system: morningglory (Ipomoea coccinea)
Outline: as §1

[13] = system: nutsedge, yellow (yellow nutsedge, Cyperus esculentus)
Outline: as §1

[14] = system: ryegrass, Italian (Italian ryegrass, Lolium multiflorum)
Outline: as §1

[15] = system: soybean (Glycine max)
Outline: as §1

[16] = system: johnsongrass (Sorghum halepense)
Outline: as §1

[17] = Postemergence, 125 g ai/ha, scale 0 to 100, 0 is no effect, 100 is complete control
[18] = Postemergence, 250 g ai/ha, scale 0 to 100, 0 no effect, 100 complete control, 13 to 15 d
[19] = Preemergence, 31 g ai/ha, scale 0 to 100, 0 is no effect, 100 is complete control
[20] = Preemergence, 62 g ai/ha, scale 0 to 100, 0 is no effect, 100 is complete control
[21] = Preemergence, 125 g ai/ha, scale 0 to 100, 0 is no effect, 100 is complete control
[22] = Preemergence, 250 g ai/ha, scale 0 to 100 (0 no effect, 100 complete control)
[23] = postemergence, 62 g ai/ha, scale 0 to 100, 0 no effect, 100 complete control
[24] = Postemergence, 31 g ai/ha, 0 to 100 scale (0 no effect, 100 complete control)

CCOC(=O)Oc1c(C)nn(C)c(=O)c1-c1c(C)sc2ccc(C)cc12 [Compound 82]
Plant response rating, Wheat [1, 17]: 5
Plant response rating, Wheat [1, 18]: 5
Plant response rating, Wheat [1, 19]: 0
Plant response rating, Wheat [1, 20]: 0
Plant response rating, Wheat [1, 21]: 0
Wheat plant response rating [1, 22]: 0
Wheat plant response rating [1, 23]: 0
Plant response rating, Lambsquarters [2, 17]: 98
Plant response rating, Lambsquarters [2, 18]: 100
Plant response rating, Lambsquarters [2, 19]: 85
Plant response rating, Lambsquarters [2, 20]: 90
Plant response rating, Lambsquarters [2, 21]: 98
Lambsquarters plant response rating [2, 22]: 98
Lambsquarters plant response rating [2, 23]: 98
Corn plant response rating [3, 24]: 35
Plant response rating, Corn [3, 17]: 10
Plant response rating, Corn [3, 18]: 5
Plant response rating, Corn [3, 19]: 0
Plant response rating, Corn [3, 20]: 0
Plant response rating, Corn [3, 21]: 20
Corn plant response rating [3, 22]: 25
Corn plant response rating [3, 23]: 30
Plant response rating, Waterhemp [4, 17]: 90
Plant response rating, Waterhemp [4, 18]: 98
Plant response rating, Waterhemp [4, 19]: 100
Plant response rating, Waterhemp [4, 20]: 100
Plant response rating, Waterhemp [4, 21]: 100
Waterhemp plant response rating [4, 22]: 100
Waterhemp plant response rating [4, 23]: 98
Blackgrass plant response rating [5, 24]: 10
Plant response rating, Blackgrass [5, 17]: 35
Plant response rating, Blackgrass [5, 18]: 40
Plant response rating, Blackgrass [5, 19]: 50
Plant response rating, Blackgrass [5, 20]: 60
Plant response rating, Blackgrass [5, 21]: 65
Blackgrass plant response rating [5, 22]: 80
Blackgrass plant response rating [5, 23]: 35
Plant response rating, Crabgrass, Large [6, 17]: 20
Plant response rating, Crabgrass, Large [6, 18]: 30
Plant response rating, Crabgrass, Large [6, 19]: 25
Plant response rating, Crabgrass, Large [6, 20]: 20
Plant response rating, Crabgrass, Large [6, 21]: 70
Crabgrass, Large plant response rating [6, 22]: 80
Crabgrass, Large plant response rating [6, 23]: 20
Plant response rating, Galium [7, 17]: 95
Plant response rating, Galium [7, 18]: 95
Plant response rating, Galium [7, 19]: 90
Plant response rating, Galium [7, 20]: 90
Plant response rating, Galium [7, 21]: 90
Galium plant response rating [7, 22]: 95
Galium plant response rating [7, 23]: 95
Plant response rating, Pigweed [8, 17]: 90
Plant response rating, Pigweed [8, 18]: 90
Plant response rating, Pigweed [8, 19]: 95
Plant response rating, Pigweed [8, 20]: 100
Plant response rating, Pigweed [8, 21]: 100
Pigweed plant response rating [8, 22]: 100
Pigweed plant response rating [8, 23]: 90
Plant response rating, Velvetleaf [9, 17]: 95
Plant response rating, Velvetleaf [9, 18]: 90
Plant response rating, Velvetleaf [9, 19]: 65
Plant response rating, Velvetleaf [9, 20]: 80
Plant response rating, Velvetleaf [9, 21]: 85
Velvetleaf plant response rating [9, 22]: 90
Velvetleaf plant response rating [9, 23]: 80
Plant response rating, Oilseed Rape [10, 17]: 50
Plant response rating, Oilseed Rape [10, 18]: 75
Plant response rating, Oilseed Rape [10, 19]: 0
Plant response rating, Oilseed Rape [10, 20]: 0
Plant response rating, Oilseed Rape [10, 21]: 0
Oilseed Rape plant response rating [10, 22]: 85
Oilseed Rape plant response rating [10, 23]: 40
Plant response rating, Foxtail, Giant [11, 17]: 60
Plant response rating, Foxtail, Giant [11, 18]: 80
Plant response rating, Foxtail, Giant [11, 19]: 60
Plant response rating, Foxtail, Giant [11, 20]: 85
Plant response rating, Foxtail, Giant [11, 21]: 90
Foxtail, Giant plant response rating [11, 22]: 100
Foxtail, Giant plant response rating [11, 23]: 25
Plant response rating, Morningglory [12, 17]: 100
Plant response rating, Morningglory [12, 18]: 100
Plant response rating, Morningglory [12, 19]: 85
Plant response rating, Morningglory [12, 20]: 90
Plant response rating, Morningglory [12, 21]: 95
Morningglory plant response rating [12, 22]: 95
Morningglory plant response rating [12, 23]: 100
Plant response rating, Nutsedge, Yellow [13, 17]: 85
Plant response rating, Nutsedge, Yellow [13, 18]: 85
Plant response rating, Nutsedge, Yellow [13, 19]: 35
Plant response rating, Nutsedge, Yellow [13, 20]: 60
Plant response rating, Nutsedge, Yellow [13, 21]: 60
Nutsedge, Yellow plant response rating [13, 22]: 90
Nutsedge, Yellow plant response rating [13, 23]: 80
Plant response rating, Ryegrass, Italian [14, 17]: 85
Plant response rating, Ryegrass, Italian [14, 18]: 85
Plant response rating, Ryegrass, Italian [14, 19]: 80
Plant response rating, Ryegrass, Italian [14, 20]: 85
Plant response rating, Ryegrass, Italian [14, 21]: 85
Ryegrass, Italian plant response rating [14, 22]: 90
Ryegrass, Italian plant response rating [14, 23]: 85
Plant response rating, Soybean [15, 17]: 5
Plant response rating, Soybean [15, 18]: 10
Plant response rating, Soybean [15, 19]: 0
Plant response rating, Soybean [15, 20]: 100
Plant response rating, Soybean [15, 21]: 0
Soybean plant response rating [15, 22]: 0
Soybean plant response rating [15, 23]: 10
Plant response rating, Johnsongrass [16, 17]: 10
Plant response rating, Johnsongrass [16, 18]: 10
Plant response rating, Johnsongrass [16, 19]: 45
Plant response rating, Johnsongrass [16, 20]: 65
Plant response rating, Johnsongrass [16, 21]: 60
Johnsongrass plant response rating [16, 22]: 40
Johnsongrass plant response rating [16, 23]: 5

CC(=O)Oc1c(C#N)nn(C)c(=O)c1-c1c(C)ccc2ccccc12 [Compound 98]
Plant response rating, Wheat [1, 17]: 15
Plant response rating, Wheat [1, 18]: 30
Wheat plant response rating [1, 23]: 10
Plant response rating, Lambsquarters [2, 17]: 100
Plant response rating, Lambsquarters [2, 18]: 100
Lambsquarters plant response rating [2, 23]: 100
Corn plant response rating [3, 24]: 5
Plant response rating, Corn [3, 17]: 15
Plant response rating, Corn [3, 18]: 15
Corn plant response rating [3, 23]: 0
Plant response rating, Waterhemp [4, 17]: 100
Plant response rating, Waterhemp [4, 18]: 100
Waterhemp plant response rating [4, 23]: 100
Blackgrass plant response rating [5, 24]: 5
Plant response rating, Blackgrass [5, 17]: 50
Plant response rating, Blackgrass [5, 18]: 70
Blackgrass plant response rating [5, 23]: 30
Plant response rating, Crabgrass, Large [6, 17]: 45
Plant response rating, Crabgrass, Large [6, 18]: 70
Crabgrass, Large plant response rating [6, 23]: 25
Plant response rating, Galium [7, 17]: 98
Plant response rating, Galium [7, 18]: 98
Galium plant response rating [7, 23]: 95
Plant response rating, Pigweed [8, 17]: 100
Plant response rating, Pigweed [8, 18]: 100
Pigweed plant response rating [8, 23]: 100
Plant response rating, Velvetleaf [9, 17]: 75
Plant response rating, Velvetleaf [9, 18]: 100
Velvetleaf plant response rating [9, 23]: 70
Plant response rating, Oilseed Rape [10, 17]: 10
Plant response rating, Oilseed Rape [10, 18]: 25
Oilseed Rape plant response rating [10, 23]: 0
Plant response rating, Foxtail, Giant [11, 17]: 98
Plant response rating, Foxtail, Giant [11, 18]: 100
Foxtail, Giant plant response rating [11, 23]: 95
Plant response rating, Morningglory [12, 17]: 100
Plant response rating, Morningglory [12, 18]: 100
Morningglory plant response rating [12, 23]: 100
Plant response rating, Nutsedge, Yellow [13, 17]: 50
Plant response rating, Nutsedge, Yellow [13, 18]: 60
Nutsedge, Yellow plant response rating [13, 23]: 15
Plant response rating, Ryegrass, Italian [14, 17]: 65
Plant response rating, Ryegrass, Italian [14, 18]: 85
Ryegrass, Italian plant response rating [14, 23]: 45
Plant response rating, Soybean [15, 17]: 25
Plant response rating, Soybean [15, 18]: 25
Soybean plant response rating [15, 23]: 10
Plant response rating, Johnsongrass [16, 17]: 10
Plant response rating, Johnsongrass [16, 18]: 10
Johnsongrass plant response rating [16, 23]: 5
